# According to US20120302609A1, “Pyrazolines for the Modulation of PKM2” (Dynamix Pharmaceuticals LTD., priority 2011, published 2012):
# Several values for one entry are separate records, joined by “and”; a condition that tells them apart may be missing. Equal entries are not always repeated.
# Columns and labels:
# [1] = HT-29 xenograft mouse model, safety (body weight, observations); format: in vivo
# Protocol: This example illustrates the efficacy and safety of a compound according to embodiments of the present invention, i.e., Compound 1A, using a HT-29 xenograft mouse model (a colorectal cancer model).
# All the procedures related to animal handling, care, and the treatment in this study were performed according to approved guidelines a following the guidance of the Association for Assessment and Accreditation of Laboratory Animal Care (AAALAC). At the time of routine monitoring, the animals were checked for any effects of tumor growth and treatments on normal behavior such as mobility, food and water consumption (by looking only), body weight gain/loss (body weights were measured thrice weekly), eye/hair matting and any other abnormal effect. Death and observed clinical signs were recorded on the basis of the numbers of animals within each subset.
# • a. Blood samples were collected after the 1st dose and the 23rd dose. Collected blood samples from 2 animals in each group at the designated timepoints post dose. The detailed timepoints are as below: • For the groups with QD dosing schedule: 1, 4, 8 and 24 hr post dose. • For the groups with Q2D dosing schedule: 1, 8, 24 and 48 hr post dose. • b. 20 μl blood was collected via tail vein in EDTA-2K tube (0.5 ml tube containing 0.4 μl 15% EDTA-2K. 60u1 double distilled water was added into the tube and mixed well.
# DU145 (prostate) = assay: Cell proliferation assay (CellTiter-Glo Luminescent); format: cell-based; conditions: Homo sapiens, DU-145, Complete media, 96 hr
# [2] = tested on: H1299 Human Non-Small Cell Lung Carcinoma; assay: H1299 human non-small cell lung carcinoma nude mouse xenograft model, tumor growth delay; format: in vivo, mice
# Protocol: The animals were fed ad libitum water (reverse osmosis, 1 ppm Cl) and NIH 31 Modified and Irradiated Lab Diet® consisting of 18.0% crude protein, 5.0% crude fat, and 5.0% crude fiber. The mice were housed on irradiated Enrich-o′ Cobs™ Laboratory Animal Bedding in static microisolators on a 12-hour light cycle at 20-22° C. (68-72° F.) and 40-60% humidity.
# H1299 (NCI-H1299) NSCLC cells were obtained from the American Type Culture Collection, which reports the cell line to have originated from a lymph node metastasis and to lack p53 expression. The cell line was maintained as exponentially growing cultures in RPMI-1640 medium supplemented with 10% fetal bovine serum, 2 mM glutamine, 100 units/mL penicillin G sodium, 100 μg/mL streptomycin sulfate, 25 μg/mL gentamicin, 10 mM HEPES, and 0.075% sodium bicarbonate. The tumor cells were cultured in tissue culture flasks in a humidified incubator at 37° C., in an atmosphere of 5% CO2 and 95% air.
# H1299 tumor cells were harvested during log phase growth and suspended in cold PBS. Each nude mouse was inoculated subcutaneously in the right flank with 0.2 mL of the cell suspension (1×10^7 cells). The tumors were periodically calipered in two dimensions to monitor size as the mean volume approached the desired 90-130 mm^3 range. Tumor size was calculated by the following formula:
# where w=width and l=length, in mm, of the tumor. Tumor weight may be estimated with the assumption that 1 mg is equivalent to 1 mm^3 of tumor volume.
# Compound 13A (MW 467.51, code-named XT26) was provided as a powder stored at −20° C., and protected from light during storage and handling. Dosing suspensions, in 0.5% carboxymethyl cellulose and 1% Tween® 80 in deionized water (Vehicle), were prepared fresh for each dose, and kept at 4° C. post formulation. Gemcitabine (Gemzar®, Lilly, 38 mg/mL, Lot # A866884A) was stored at room temperature. A fresh 12 mg/mL gemcitabine dosing solution was prepared on each treatment day by diluting an aliquot of the stock solution with saline.
# Dosing began on D1 in four groups of mice (n=12/group in Groups 1, 3, and 4; n=6 in Group 2). XT26 and its vehicle were administered intraperitoneally (i.p.) twice daily for 28 days (b.i.d.×28), starting with the p.m. dose on D1 and ending with the a.m. dose on D29. Gemcitabine was administered i.p. once daily at three-day intervals for four doses (q3d×4). In all groups, the dosing volume of 10 ml/kg (0.2 ml/20 g mouse) was scaled to the weight of each individual animal, as measured twice weekly.
# Group 1 mice received the XT26 vehicle b.i.d.×28, and served as the controls for the study. Group 2 received gemcitabine at 120 mg/kg. Group 3 was to receive XT26 at 100 mg/kg b.i.d.×28; on D21, four mice (Animals 1, 3, 4, and 5) erroneously received 200 mg/kg XT26 for their a.m. dose. […] Group 4 dosing at 200 mg/kg resumed on D17 on a qd (once daily)×13 dosing schedule. Because of a scheduling error, the D19 dose for Group 4 mice was omitted; qd dosing occurred on Days 17, 18, and 20-28.
# Tumors were calipered twice weekly for the duration of the study, and each animal was euthanized when its neoplasm reached the predetermined endpoint volume (1200 mm^3) or at the end of the study, whichever came first. Animals that exited the study for tumor growth were documented as euthanized for tumor progression (TP), with the date of euthanasia. The time to endpoint (TTE) for each mouse was calculated by the following equation: […]
# where TTE is expressed in days, endpoint volume is expressed in mm^3, b is the intercept, and m is the slope of the line obtained by linear regression of a log-transformed tumor growth data set.
# [3] = Group 1 vs 3: XT26 ip bid × 28, 100 mg/kg
# [4] = XT26 200 mg/kg ip bid × 8, then qd
# [5] = XT26 200 mg/kg ip bid × 8, then qd on Days 17, 18, 20-28
smiles,measurement,setting,value
"CCS(=O)(=O)Nc1ccc(C2=NN(C(C)=O)C(c3ccc(OC)cc3)C2)cc1 (racemic) [Compound 1A, N-(4-(1-acetyl-5-(4-methoxyphenyl)-4,5-dihydro-1H-pyrazol-3-yl)phenyl)ethanesulfonamide]",body weight loss,[1]; all the treatment groups (100-400 mg/kg i.p.),No significant body weight loss
same,in vivo safety profile,[1]; highest dosage level 400 mg/kg QD,good in vivo safety profile
"COc1ccc([C@@H]2CC(c3ccc(NS(=O)(=O)c4ccc(F)cc4)cc3)=NN2C(C)=O)cc1 [Compound 13A, (S)—N-(4-(1-acetyl-5-(4-methoxyphenyl)-4,5-dihydro-1H-pyrazol-3-yl)phenyl)-4-fluorobenzenesulfonamide]",AC50,DU145 (prostate),10 to 20 µM
same,Are the survival curves sig different?,[2]; [3],Yes
same,Hazard Ratio,[2]; [3],2.315
same,Median survival Ratio,[2]; Group 1 vs 3: vehicle / XT26 100 mg/kg,0.8022
same,% TGD,[2]; XT26 100 mg/kg ip bid × 28,24%
same,Regressions CR,[2]; XT26 100 mg/kg ip bid × 28,0
same,Regressions PR,[2]; XT26 100 mg/kg ip bid × 28,0
same,Regressions TFS,[2]; XT26 100 mg/kg ip bid × 28,0
same,Median TTE,"[2]; XT26 100 mg/kg ip bid × 28, endpoint 1200 mm^3, 28-day study",23.2 days
same,MTV (n) Day 28,"[2]; XT26 100 mg/kg ip bid × 28, median tumor volume of animals not at endpoint (n in brackets), 100 mg/kg",1080 mm^3 and 1080 (3) mm^3
same,T − C,"[2]; XT26 100 mg/kg ip bid × 28, vs Group 1 vehicle",4.5 days
same,Regressions CR,[2]; [4],0
same,Regressions PR,[2]; [4],0
same,Regressions TFS,[2]; [4],0
same,% TGD,[2]; [5],13%
same,T − C,[2]; [5],2.5 days
same,Median TTE,"[2]; XT26 200 mg/kg ip bid × 8, then qd on Days 17, 18, 20-28, n = 9",21.2 days
same,MTV (n) Day 28,"[2]; XT26 200 mg/kg ip bid × 8, then qd, animals not at endpoint (n in brackets), 200 mg/kg",527 mm^3 and 527 (1) mm^3
same,Median survival,"[2]; XT26 ip bid × 28, 100 mg/kg (Column B = treated group)",23.25
same,survival advantage relative to the vehicle treatment,"[2]; discontinuous 200 mg/kg XT26 therapy, five mice remaining after D10",little or no survival advantages
